Key:
[1] = test system: NCI-H1373-luc intracranial tumors; experiment: Brain metastasis intracranial model, efficacy (bioluminescence); assay type: in vivo
Source text: The purpose of this assay is to determine whether brain exposure of the compounds of current invention was sufficient to mediate regression of tumors in experimental Brain Metastases (BM) models.
NCI-H1373 cell line was purchased from the ATCC (CRL-5866). NCI-H1373-Luc cells were generated by WuXi AppTec. For generating NCI-H1373-Luc cell line, NCI-H1373 cells were transduced with GFP-Luc-puro lentivirus vector (HBLV-1014, HANBIO, carrying cDNA coding for firefly luciferase) and then selected with 1 μg/mL puromycin. All cells were authenticated by short tandem repeat fingerprinting, and periodically tested to be Mycoplasma free. H1373-luc cells were cultured in medium containing RPMI1640 (Thermo Fisher Scientific) plus 10% Fetal Bovine Serum (FBS, Thermo Fisher Scientific, 2.5 μg/mL puromycin and 1% Antibiotic-Antimycotic (Thermo Fisher Scientific), at 37° C. in an atmosphere of 5% CO2 in air. The medium was renewed every 2 to 3 days and tumor cells were routinely sub-cultured at a confluence of 80-90%. Cells growing in an exponential growth phase were harvested and counted for inoculation.
Murine studies were conducted at the WuXi AppTec and were performed in compliance with all applicable regulations and guidelines of the Institutional Animal Care and Use Committee (IACUC). Mice were maintained in a special pathogen-free environment and in individual ventilation cages, and food and water will be sterilized before use. 8 to 9 weeks female NU/NU nude mice (Charles River Lab.) were implanted intracarotid injection with 0.5×10^5 NCI-H1373-Luc cells in 100 μL serum-free media. When bioluminescence reached a mean of 1.28E+08 photons/second (range of 5.79E+07-2.685E+08 photons/second) at day 15 post inoculation, tumor-bearing mice were randomized into different groups with 4 mice in each group. The randomization date was denoted as treatment day 0. Afterwards, oral daily dosing of vehicle or Example 24 began and continued for 14 days. Baseline bioluminescent imaging (BLI) began 24 hours prior to initial dosing with vehicle or test articles, and additional imaging time points for all animals were measured twice a week by Xenogen machine (PerkinElmer IVIS Lumina II) between 0-14 days post grouping. […]
TGI (tumor growth inhibition) was calculated for each group using the formula: TGI (%)=[1−(Ti−T0)/(Vi−V0)]×100; Ti is the average tumor bioluminescence of a treatment group on a given day, T0 is the average tumor bioluminescence of the treatment group on the day of treatment start, Vi is the average tumor bioluminescence of the vehicle control group on the same day with Ti, and V0 is the average tumor bioluminescence of the vehicle group on the day of treatment start. […]

[2] = test system: DUSP6; experiment: Brain metastasis intracranial model, PD (DUSP6 in brain, qPCR); assay type: in vivo, mouse; conditions: 30 mg/kg once daily for 14 days, 6 hours post last dose, NCI-H1373-Luc model
Protocol: Example 24, formulated in 10% DMSO, 10% Solutol HS15, 80% water, was dosed orally to 7-9 weeks female BALB/c nude mice (Vital River Co., LTD.) in […] at 30 mg/kg (dosing volume of 10 ml/kg) once daily for 14 days. Terminal tissue and blood harvest was performed at 6 hours after post last dose of test articles, using 4 mice per group. In brief, whole blood was collected into K2-EDTA tubes and subjected to centrifugation to separate plasma. Brains were collected, rinsed, and homogenized. Mice Brain were analyzed using qPCR using DUSP6 and ACTB TaqMan probes (ABI-4369016, ABI-4351370). All the targets mRNA expression levels were normalized to the housekeeping gene, and the data were represented as fold-changes according to the 2-ΔΔCt method, where […] and ΔΔCt=ΔCt treatment-ΔCt reference, ΔCt reference was chosen as the vehicle group. The data were interpreted by GraphPad Prism, and statistical analysis of difference in the each targets mRNA expression among the groups were conducted. For comparison between two groups, an independent sample t-test will be used. For comparison among three or more groups, a one-way ANOVA (Dunnett's multiple comparisons test) will be performed, p<0.05 was considered to be statistically significant.

[3] = day 14, 30 mg/kg, PO, QD, NCI-H1373-luc intracranial

CO[C@@H](C)c1ncc(N2CCN(C)CC2)cc1-c1c2c3cc(cc4c3n1CCC4)-c1csc(n1)C[C@H](NC(=O)[C@H]1[C@H](C)[C@@H]1C)C(=O)N1CCC[C@H](N1)C(=O)OCC(C)(C)C2 (atropisomer, axis not shown; (M)) [Example 24, (1r,2R,3S)-N-[(7S,13S)-(20M)-20-[2-[(1S)-1-methoxyethyl]-5-(4-methylpiperazin-1-yl)-3-pyridyl]-17,17-dimethyl-8,14-dioxo-15-oxa-4-thia-9,21,30,31-tetrazahexacyclo[23.3.1.1^2,5.1^9,13.0^19,27.0^21,26]hentriaconta-1 (28),2,5 (31), 19,25 (29),26-hexaen-7-yl]-2,3-dimethyl-cyclopropanecarboxamide]
tolerability (overt toxicity, animal weight) ([1]; 30 mg/kg once daily for 14 days, NCI-H1373-luc intracranial model): no sign of overt toxicity or animal weight loss | ROI [1, 3]: 1.34 ± 0.75 ×10^7 photon/s | T/C [1, 3]: 0.52% | TGI [1, 3]: 104.68% | MAPK activation (DUSP6) in the brain [2]: significantly decreased
